Source: patent publication EP4574149A1, “COMPOSITION OF RAPAMYCIN, DIMETHYLSULPHOXIDE AND WATER FOR USE IN THE TREATMENT OF FATTY LIVER DISEASE” (Assistance Publique - Hôpitaux de Paris, priority 2023, dated 2025)

Key:
foies humains = test: Perfusion circuit with steatotic human livers: intracellular triglycerides and pharmacokinetics; conditions: for diminution du taux de triglycérides intra cellulaires: steatosis > 50%
Description: De la même manière, l'expérience a été réalisée avec deux foies humains jugés non transplantables et utilisés à visée scientifique après autorisation de l'Agence de Biomédecine. […] L'évaluation de la viabilité de ces deux organes ont été faites selon des critères validés en pratique clinique. […] Pour ce faire, les triglycérides intra cellulaires ont été dosés.

[1] = Solubility study of rapamycin in DMSO/H2O mixtures; format: physicochemical
Protocol: Une étude de solubilité a été réalisée sur des mélanges DMSO/H2O, de 40% à 100% (v/v) en DMSO et des concentrations en rapamycine comprises entre 0,4 et 4 mg/mL.
L'évaluation de la solubilisation de rapamycine en fonction de différentes concentrations de DMSO est présentée au Tableau 3 ci-dessous : Tableau 3 : Evaluation de la solubilisation de rapamycine en fonction de différentes concentrations de DMSO.
A la suite de ces résultats, une nouvelle étude a été lancée sur un intervalle plus restreint en DMSO, avec 3 niveaux de concentrations (70%; 85%; 100%) et les 3 mêmes niveaux de rapamycine (0,4; 1; 4 mg/mL) (Tableau 4). Tableau 4 : Evaluation de la solubilisation de rapamycine dans des concentrations de DMSO à 70%, 85% et 100%.

[2] = Perfusion circuit without organ: rapamycin concentration in whole blood perfusate; format: in vitro ADME, humain; conditions: whole human blood perfusate at 37°C, no organ; theoretical target 180 ng/mL; 4 experiments
Protocol: Une machine de perfusion hépatique a été utilisée avec du perfusat constitué de sang total humain maintenu à 37°C. La rapamycine a été injectée directement dans le circuit de perfusion. Des prélèvements étaient réalisés à intervalles réguliers pour doser la molécule. L'expérience a été réalisée 4 fois, l'objectif étant de valider la concentration cible théorique de 180 ng/mL définie à partir des études précédentes d'efficacité et de toxicité.

[3] = in DMSO (Simamora P et al., 2001); cited from earlier work
[4] = Perfusion circuit with pig liver: pharmacokinetics of rapamycin; format: in vitro ADME, cochon; conditions: pig liver on perfusion machine
Protocol: Le même protocole de perfusion a été utilisé mais avec un foie animal. Celui-ci a été prélèvé chez un cochon en arrêt cardiaque puis préservé dans de la glace. Il a ensuite été mis sur machine de perfusion, initialement en hypothermie (4°C) pendant 2 heures puis à 37°C pendant 12 heures avec une phase de réchauffement intermédiaire (sub normothermie, 21°C). La rapamycine était injectée dans le circuit 2 heures après le début de la phase de normothermie. Neuf expériences ont été réalisées. L'objectif était d'avoir une étude pharmacocinétique de la rapamycine.

tissus hépatiques = test: Defatting effect of rapamycin on hepatic tissues, liver slices (Example 2); format: cell-based; conditions: rapamycine 200nM, read-out: diminution du taux de triglycérides intracellulaires par rapport au contrôle
Protocol: (§1) La rapamycine a été évaluée sur des cultures d'hépatocytes et sur tissus hépatiques (tranches de foies permettant de garder la structure hépatique). Pour une concentration de rapamycine à 200nM, il était observé une diminution de 19% du taux de triglycérides intracellulaires par rapport au contrôle dans les hépatocytes et de 38% dans les tissus hépatiques. Ces résultats répétés plusieurs fois ont permis de confirmer la preuve de concept de l'effet de la rapamycine sur l'effet « dégraissant ».

hépatocytes = test: Defatting effect of rapamycin on hepatocyte cultures (Example 2); format: cell-based; conditions: rapamycine 200nM, hepatocytes, read-out: diminution du taux de triglycérides intracellulaires par rapport au contrôle
Protocol: as §1

CO[C@H]1C[C@@H]2CC[C@@H](C)[C@@](O)(O2)C(=O)C(=O)N2CCCC[C@H]2C(=O)O[C@H]([C@H](C)C[C@@H]2CC[C@@H](O)[C@H](OC)C2)CC(=O)[C@H](C)/C=C(\C)[C@@H](O)[C@@H](OC)C(=O)[C@H](C)C[C@H](C)/C=C/C=C/C=C/1C [Rapamycine, rapamycine]
diminution du taux de triglycérides intra cellulaires (foies humains; foie N°1, 9 heures after injection of rapamycin): 39%
diminution du taux de triglycérides intra cellulaires (foies humains; foie N°2): 31%
pharmacocinétique (foies humains; human livers on perfusion machine): identique à celle observée lors de la perfusion des foies de cochon
Solubilité à température ambiante ([1]; DMSO/H2O 40 % volumique, [Rapamycine] 0,4 mg/mL): Non (aspect laiteux avec cristaux
Solubilité à température ambiante ([1]; DMSO/H2O 40 % volumique, [Rapamycine] 1 mg/mL): Non (aspect laiteux avec cristaux
Solubilité à température ambiante ([1]; DMSO/H2O 40 % volumique, [Rapamycine] 4 mg/mL): Non (aspect laiteux avec cristaux
Solubilité à température ambiante ([1]; DMSO/H2O 60 % volumique, [Rapamycine] 0,4 mg/mL): Oui
Solubilité à température ambiante ([1]; DMSO/H2O 60 % volumique, [Rapamycine] 1 mg/mL): Oui
Solubilité à température ambiante ([1]; DMSO/H2O 60 % volumique, [Rapamycine] 4 mg/mL): Non (aspect laiteux avec cristaux
Solubilité à température ambiante ([1]; DMSO/H2O 80 % volumique, [Rapamycine] 0,4 mg/mL): Oui
Solubilité à température ambiante ([1]; DMSO/H2O 80 % volumique, [Rapamycine] 1 mg/mL): Oui
Solubilité à température ambiante ([1]; DMSO/H2O 80 % volumique, [Rapamycine] 4 mg/mL): Oui
Solubilité à température ambiante ([1]; DMSO/H2O 100 % volumique, [Rapamycine] 0,4 mg/mL): Oui
Solubilité à température ambiante ([1]; DMSO/H2O 100 % volumique, [Rapamycine] 1 mg/mL): Oui
Solubilité à température ambiante ([1]; DMSO/H2O 100 % volumique, [Rapamycine] 4 mg/mL): Oui
Solubilité à température ambiante ([1]; second study (Tableau 4), DMSO/H2O 70 % volumique, [Rapamycine] 0,4 mg/mL): Oui
Solubilité à température ambiante ([1]; second study (Tableau 4), DMSO/H2O 70 % volumique, [Rapamycine] 1 mg/mL): Oui
Solubilité à température ambiante ([1]; second study (Tableau 4), DMSO/H2O 70 % volumique, [Rapamycine] 4 mg/mL): Oui
Solubilité à température ambiante ([1]; second study (Tableau 4), DMSO/H2O 85 % volumique, [Rapamycine] 0,4 mg/mL): Oui
Solubilité à température ambiante ([1]; second study (Tableau 4), DMSO/H2O 85 % volumique, [Rapamycine] 1 mg/mL): Oui
Solubilité à température ambiante ([1]; second study (Tableau 4), DMSO/H2O 85 % volumique, [Rapamycine] 4 mg/mL): Oui
Solubilité à température ambiante ([1]; second study (Tableau 4), DMSO/H2O 100 % volumique, [Rapamycine] 0,4 mg/mL): Oui
Solubilité à température ambiante ([1]; second study (Tableau 4), DMSO/H2O 100 % volumique, [Rapamycine] 1 mg/mL): Oui
Solubilité à température ambiante ([1]; second study (Tableau 4), DMSO/H2O 100 % volumique, [Rapamycine] 4 mg/mL): Oui
concentration moyenne de rapamycine [2]: 150 ± 30 ng/mL
solubilité [3]: > 250 mg/mL
time after injection from which rapamycin is found in bile ([4]; bile, increases during perfusion): 1 heure
Tmax ([4]; whole blood and plasma, 37°C, read-out: pic de concentration (time after injection) (converted)): 5 min
inhibition at 0.2 µM (tissus hépatiques): 38%
inhibition at 0.2 µM (hépatocytes): 19%
